Results: patent US11535630B2, “Apelin receptor (APJ) agonists and uses thereof” (Research Triangle Institute, priority 2015, dated 2022)

target: T1, apelin receptor (APJ) (Homo sapiens, UniProt P35414); experiment: In vitro apelin agonist activity (methods of Giddings et al., Apelin-13 as positive control); type: cell-based; details: EC50 (nM) Ave, in vitro apelin agonist activity, methods of Giddings et al., Apelin-13 as positive control
T1 sequence (P35414 1-380): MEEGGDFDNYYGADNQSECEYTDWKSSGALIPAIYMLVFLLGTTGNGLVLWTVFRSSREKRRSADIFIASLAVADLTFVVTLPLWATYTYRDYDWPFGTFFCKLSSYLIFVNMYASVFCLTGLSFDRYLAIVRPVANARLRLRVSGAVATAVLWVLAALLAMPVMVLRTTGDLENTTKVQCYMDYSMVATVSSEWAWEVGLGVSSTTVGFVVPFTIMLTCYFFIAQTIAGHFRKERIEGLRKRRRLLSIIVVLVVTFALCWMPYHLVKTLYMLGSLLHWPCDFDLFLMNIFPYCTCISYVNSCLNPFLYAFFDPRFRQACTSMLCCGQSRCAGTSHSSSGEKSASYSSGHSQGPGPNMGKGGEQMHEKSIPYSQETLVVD
Text: Characterization of the Apelin Agonist Activity of the Compounds
1:39-47, the contents of which are hereby incorporated by reference in its entirety. Using the methods described in Giddings et al. and Apelin-13 as a positive control.

O=C(C[C@H](CN1CCCC(F)(F)C1)NC(=O)c1cc(-c2ccccc2C(F)(F)F)n(C2CCCC2)n1)NC1CCC1 [compound 524, (3R)-N-cyclobutyl-3-({1-cyclopentyl-5-[2-(trifluoromethyl)phenyl]-1H-pyrazol-3-yl]formamido)-4-(3,3-difluoropiperidin-1-yl)butanamide] showed an EC50 of 910 nM.

same assay, conditions: in vitro apelin agonist activity, methods of Giddings et al., Apelin-13 as positive control; read-out: EC50 (nM) Ave

CC(F)(F)c1ccccc1-c1cc(C(=O)N[C@@H](CCN2CCCCC2)CC(=O)NC2CCC2)nn1C1CCCC1 [compound 400, (3S)-N-cyclobutyl-3-({1-cyclopentyl-5-(2-(1,1-difluoroethyl)phenyl]-1H-pyrazol-3-yl]formamido)-5-(piperidin-1-yl)pentanamide] and O=C(C[C@H](CCN1CCCCC12COC2)NC(=O)c1cc(-c2ccccc2C(F)(F)F)n(C2CCCC2)n1)NC1CCC1 [compound 522] are within 1.5-fold of each other in EC50: 46 nM for the first, 64 nM for the second.

First: COc1cccc(OC)c1-c1cc(C(=O)N[C@@H](CCc2ccccc2)C(=O)Nc2nccs2)nn1C1CCCC1 [compound 396, (2S)-2-{[1-cyclopentyl-5-(2,6-dimethoxyphenyl)-1H-pyrazol-3-yl]formamido}-4-phenyl-N-(1,3-thiazol-2-yl)butanamide]
Second: COc1cccc(OC)c1-c1cc(C(=O)N[C@@H](CCc2ccccc2)C(=O)NCc2nnn[nH]2)nn1C1CCCC1 [compound 387, (2S)-2-{[1-cyclopentyl-5-(2,6-dimethoxyphenyl)-1H-pyrazol-3-yl]formamido}-4-phenyl-N-(1H-1,2,3,4-tetrazol-5-ylmethyl)butanamide]
The EC50 of the first is higher: over 10000 nM for the first, 8720 nM for the second.

Compared with COc1cccc(OC)c1-c1cc(C(=O)N[C@@H](/C=C/c2cccnc2)CC(=O)NC2CCC2)nn1C1CCCC1 [compound 418, (3R,4E)-N-cyclobutyl-3-{[1-cyclopentyl-5-(2,6-dimethoxyphenyl)-1H-pyrazol-3-yl]formamido}-5-(pyridin-3-yl)pent-4-enamide], COc1cccc(OC)c1-c1cc(C(=O)N[C@@H](/C=C/c2ccncc2)CC(=O)NC2CCC2)nn1C1CCCC1 [compound 419, (3R,4E)-N-cyclobutyl-3-{[1-cyclopentyl-5-(2,6-dimethoxyphenyl)-1H-pyrazol-3-yl]formamido}-5-(pyridin-4-yl)pent-4-enamide] is higher in EC50: 664 nM for the first, over 10000 nM for the second.

First: O=C(C[C@H](CCNC(=O)C1COC1)NC(=O)c1cc(-c2ccccc2C(F)(F)F)n(C2CCCC2)n1)NC1CCC1 [compound 539, (3S)-N-cyclobutyl-3-({1-cyclopentyl-5-[2-(trifluoromethyl)phenyl]-1H-pyrazol-3-yl}formamido)-5-(oxetan-3-ylformamido)pentanamide]
Second: O=C(O)C[C@H](CCNC(=O)C1CCCC1)NC(=O)c1cc(-c2ccccc2C(F)(F)F)n(C2CCCC2)n1 [compound 538, (3S)-3-({1-cyclopentyl-5-[2-(trifluoromethyl)phenyl]-1H-pyrazol-3-yl}formamido)-5-(cyclopentylformamido)pentanoic acid]
The EC50 of the first is 3.1-fold lower: 176 nM for the first, 544 nM for the second.

First: COCCN(C)C(=O)C[C@H](CCN1CCCCC1)NC(=O)c1cc(-c2c(OC)cccc2OC)n(C2CCCC2)n1 [compound 334, (3S)-3-{[1-cyclopentyl-5-(2,6-dimethoxyphenyl)-1H-pyrazol-3-yl]formamido}-N-(2-methoxyethyl)-N-methyl-5-(piperidin-1-yl)pentanamide]
Second: COc1cccc(OC)c1-c1cc(C(=O)N[C@@H](CCN2CCCCCC2)CC(=O)OC(C)(C)C)nn1C1CCCC1 [compound 319, tert-butyl (3S)-5-(azepan-1-yl)-3-{[1-cyclopentyl-5-(2,6-dimethoxyphenyl)-1H-pyrazol-3-yl]formamido}pentanoate]
The EC50 of the first is 1.9-fold higher: 6570 nM for the first, 3510 nM for the second. The second is the more potent here.

Going from COc1cccc(OC)c1-c1cc(C(=O)N[C@@H](CCc2ccccc2)Cc2nnn[nH]2)nn1C1CCCC1 [compound 390, 1-cyclopentyl-5-(2,6-dimethoxyphenyl)-N-[(2S)-4-phenyl-1-(1H-1,2,3,4-tetrazol-5-yl)butan-2-yl]-1H-pyrazole-3-carboxamide] to COc1cccc(OC)c1-c1cc(C(=O)N[C@@H](CCN2CCCCC2)Cc2nnn[nH]2)nn1C1CCCC1 [compound 364, 1-cyclopentyl-5-(2,6-dimethoxyphenyl)-N-[(2S)-4-(piperidin-1-yl)-1-(1H-1,2,3,4-tetrazol-5-yl)butan-2-yl]-1H-pyrazole-3-carboxamide], the EC50 falls from 429 nM to 235 nM (1.8-fold). The second is the more potent here.

Compared with CCN(C(=O)c1cc(-c2c(OCC(F)(F)F)cccc2OCC(F)(F)F)n(C2CCCC2)n1)[C@@H](CCN1CCCCC1)CC(=O)NC1CCC1 [compound 342, (3S)-3-(1-{5-[2,6-bis(2,2,2-trifluoroethoxy)phenyl]-1-cyclopentyl-1H-pyrazol-3-yl}-N-ethylformamido)-N-cyclobutyl-5-(piperidin-1-yl)pentanamide], CN(CC[C@@H](CC(=O)NC1CCC1)NC(=O)c1cc(-c2ccccc2C(F)(F)F)n(C2CCCC2)n1)C1CCCC1 [compound 490, (3S)-N-cyclobutyl-5-[cyc1opentyl(methyl)amino]-3-({1-cyclopentyl-5-[2(trifluoromethyl)phenyl]-1H-pyrazol-3-yl}formamido)pentanamide] is lower in EC50: over 10000 nM for the first, 10.3 nM for the second. The second is the more potent here.

First: O=C(N[C@@H](CC1CCCCC1)C(=O)O)c1cc(-c2ccccc2C(F)(F)F)n(C2CCCC2)n1 [compound 577, (2S)-3-cyclohexyl-2-({1-cyclopentyl-5-[2-(trifluoromethyl)phenyl]-1H-pyrazol-3-yl}formamido)propanoic acid]
Second: CC(C)[C@H](NC(=O)c1cc(-c2ccccc2C(F)(F)F)n(C2CCCC2)n1)C(=O)O [compound 528, (2S)-2-({1-cyclopentyl-5-[2-(trifluoromethyl)phenyl]-1H-pyrazol-3-yl}formamido)-3-methylbutanoic acid]
The EC50 of the first is lower: 1030 nM for the first, over 10000 nM for the second.

First: COc1cccc(OC)c1-c1cc(C(=O)N[C@@H](/C=C/c2ccc(F)cc2)CC(=O)NC2CCC2)nn1C1CCCC1 [compound 415, (3R,4E)-N-cyclobutyl-3-{[1-cyclopentyl-5-(2,6-dimethoxyphenyl)-1H-pyrazol-3-yl]formamido}-5-(4-fluorophenyl)pent-4-enamide]
Second: Cc1cnn(CC[C@@H](CC(=O)NC2CCC2)NC(=O)c2cc(-c3ccccc3C(F)(F)F)n(C3CCCC3)n2)c1 [compound 501, (3S)-N-cyclobutyl-3-({1-cyclopentyl-5-[2-(trifluoromethyl)phenyl]-1H-pyrazol-3-yl}formamido)-5-(4-methyl-1H-pyrazol-1-yl)pentanamide]
The EC50 of the first is 11-fold higher: 292 nM for the first, 26 nM for the second.

Going from CC(F)(F)c1ccccc1-c1cc(C(=O)N[C@@H](CCN2CCC(F)(F)C2)CC(=O)O)nn1C1CCCC1 [compound 537, (3S)-3-({1-cyclopentyl-5-[2-(1,1-difluoroethyl)phenyl]-1H-pyrazol-3-yl}formamido)-5-(3,3-difluoropyrrolidin-1-yl)pentanoic acid] to O=C(O)C[C@H](CCN1CCC(F)(F)CC1)NC(=O)c1cc(-c2ccccc2C(F)(F)F)n(C2CCCC2)n1 [compound 424, (3S)-3-({1-cyclopentyl-5-[2-(trifluoromethyl)phenyl]-1H-pyrazol-3-yl}formamido)-5-(4,4-difluoropiperidin-1-yl)pentanoic acid], the EC50 rises from 16 nM to 110 nM (6.9-fold).

First: Cc1cnn(CC[C@@H](CC(=O)N(C)c2nccs2)NC(=O)c2cc(-c3ccccc3C(F)(F)F)n(C3CCCC3)n2)c1 [compound 500, (3S)-3-({1-cyclopentyl-5-[2-(trifluoromethyl)phenyl]-1H-pyrazol-3-yl}formamido)-N-methyl-5-(4-methyl-1H-pyrazol-1-yl)-N-(1,3-thiazol-2-yl)pentanamide]
Second: NNC(=O)C[C@H](CCc1ccc(F)cc1)NC(=O)c1cc(-c2ccccc2C(F)(F)F)n(C2CCCC2)n1 [compound 464]
The EC50 of the first is 13-fold lower: 79 nM for the first, 1040 nM for the second.

First: O=C(O)C[C@H](CCN1CCCC(F)(F)C1)NC(=O)c1cc(-c2ccccc2Cl)n(C2CCCC2)n1 [compound 433, (3S)-3-{[5-(2-chlorophenyl)-1-cyclopentyl-1H-pyrazol-3-yl]formamido}-5-(3,3-difluoropiperidin-1-yl)pentanoic acid]
Second: CCc1ccccc1-c1cc(C(=O)N[C@@H](CCN2CCC(F)(F)CC2)CC(=O)O)nn1C1CCCC1 [compound 405, (3S)-3-{[1-cyclopentyl-5-(2-ethylphenyl)-1H-pyrazol-3-yl]formamido}-5-(4,4-difluoropiperidin-1-yl)pentanoic acid]
The EC50 of the first is 1.5-fold lower: 151 nM for the first, 227 nM for the second. The first is the more potent here.

Going from C[C@@H]1CC(F)(F)CN1CC[C@@H](CC(=O)O)NC(=O)c1cc(-c2ccccc2C(C)(F)F)n(C2CCCC2)n1 [compound 605, (3S)-3-({1-cyclopentyl-5-[2-(1,1-difluoroethyl)phenyl]-1H-pyrazol-3-yl]formamido)-5-[(2R)-4,4-difluoro-2-methylpyrrolidin-1-yl]pentanoic acid] to CC(C)Cn1nc(C(=O)N[C@@H](CCN2CCCC(F)(F)C2)CC(=O)O)cc1-c1ccccc1C(F)(F)F [compound 565, (3S)-5-(3,3-difluoropiperidin-1-yl)-3-{[1-(2-methylpropyl)-5-[2-(trifluoromethyl)phenyl]-1H-pyrazol-3-yl]formamido}pentanoic acid], the EC50 rises from 11 nM to 544 nM (49-fold).

Going from O=C(O)C[C@H](CCN1CCCC(F)(F)C1)NC(=O)c1nc(-c2cccnc2C(F)(F)F)n(C2CCCC2)n1 [compound 525] to CCc1ccccc1-c1cc(C(=O)N[C@@H](CCN2CCC(F)(F)CC2)CC(=O)NC2CCC2)nn1C1CCCC1 [compound 411, (3S)-N-cyclobutyl-3-{[1-cyclopentyl-5-(2-ethylphenyl)-1H-pyrazol-3-yl]formamido}-5-(4,4-difluoropiperidin-1-yl)pentanamide], the EC50 falls from over 10000 nM to 14.5 nM.
